Experimental data as given in ChEMBL document CHEMBL2390845, “Identification of PDZ ligands by docking-based virtual screening for the development of novel analgesic agents” (Bioorg Med Chem Lett, 2013).
Calls of active or inactive are those of the source.

What was measured:
[1] = target: Disks large homolog 4 (Homo sapiens) (UniProt P78352); assay: Binding affinity to PSD-95 PDZ1 domain (unknown origin) expressed in Escherichia coli BL21 at 1 mM by 1H-15N HSQC NMR analysis
[2] = target: Disks large homolog 4 (Homo sapiens) (UniProt P78352); assay: Binding affinity to PSD-95 PDZ2 domain (unknown origin) expressed in Escherichia coli BL21 at 1 mM by 1H-15N HSQC NMR analysis
[3] = system: Rattus norvegicus; assay: Antihyperalgesic activity in intrathecally dosed chronic constriction nerve injury-induced rat neuropathic pain model assessed as vocalisation threshold to paw-pressure measured up to 120 mins post-compound treatment; format: functional, organism-based
[4] = system: Rattus norvegicus; assay: Antihyperalgesic activity in chronic constriction nerve injury-induced rat neuropathic pain model assessed as reduction in mechanical hyperalgesia measuring vocalisation threshold to paw-pressure at 122.6 ng administered intrathecally measured 15 mins post-compound treatment; format: functional, organism-based

Sequence of Disks large homolog 4 (Homo sapiens) (P78352 whole entry, looked up, the tested form may be a part): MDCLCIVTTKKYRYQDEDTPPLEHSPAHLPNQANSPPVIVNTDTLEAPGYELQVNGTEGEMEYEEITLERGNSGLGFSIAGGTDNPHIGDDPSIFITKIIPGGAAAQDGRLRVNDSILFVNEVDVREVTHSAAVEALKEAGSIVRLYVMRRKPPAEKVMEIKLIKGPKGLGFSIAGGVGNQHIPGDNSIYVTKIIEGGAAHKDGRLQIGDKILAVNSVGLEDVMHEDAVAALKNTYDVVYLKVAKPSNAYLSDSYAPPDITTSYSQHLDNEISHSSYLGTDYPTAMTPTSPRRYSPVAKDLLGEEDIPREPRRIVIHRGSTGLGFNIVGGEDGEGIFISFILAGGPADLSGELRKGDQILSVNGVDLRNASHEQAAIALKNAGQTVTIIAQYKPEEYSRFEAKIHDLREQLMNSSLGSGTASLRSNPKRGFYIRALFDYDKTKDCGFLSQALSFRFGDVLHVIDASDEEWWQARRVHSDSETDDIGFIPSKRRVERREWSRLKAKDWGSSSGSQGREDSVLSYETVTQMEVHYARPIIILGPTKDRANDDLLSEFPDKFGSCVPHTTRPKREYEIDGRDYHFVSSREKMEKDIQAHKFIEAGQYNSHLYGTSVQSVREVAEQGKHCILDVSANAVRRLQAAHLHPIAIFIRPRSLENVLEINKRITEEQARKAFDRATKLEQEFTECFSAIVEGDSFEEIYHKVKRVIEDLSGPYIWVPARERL

Activity [1]	Activity [2]	Structure (SMILES)	Activity [3]	Activity [4]
inactive	inactive	O=C(O)c1ccc(N[C@@H]2O[C@H](CO)[C@@H](O)[C@H](O)[C@H]2O)cc1	–	–
Active	Active	Cc1cc2cc(C)c(C(=O)O)nc2cc1C(=O)O	Dose-dependent effect	Active
inactive	inactive	O=C(N/N=C/c1cccc(O)c1O)c1ccc(O)cc1	–	–
